Assay results published in US11986493B2 (University of Pittsburgh—Of the Commonwealth System of …, priority 2013, dated 2024).

Key:
[1] = tested on: subjects with pulmonary hypertension; assay: Oxygen saturation by pulse oximeter and methemoglobin by continuous percutaneous co-oximetry; format: in vivo, human
Description: Oxygen saturation measured by pulse oximeter and methemoglobin levels monitored by continuous percutaneous co-oximetry prior to dose administration and through 4 hours post-dose were monitored closely.

[2] = tested on: hypoxic and normoxic subjects; conditions: Ingram et al. (Am J. Phsiol. 298:H331-H339 (2010)); cited from earlier work
[3] = Patient 1, nitrite 45 mg inhaled, 15 min
[4] = Patient 1, nitrite 45 mg inhaled, 30 min
[5] = Patient 1, nitrite 45 mg inhaled, 45 min
[6] = Patient 1, nitrite 45 mg inhaled, 60 min
[7] = Patient 1, nitrite 90 mg inhaled, 15 min
[8] = Patient 1, nitrite 90 mg inhaled, 30 min
[9] = Patient 1, nitrite 90 mg inhaled, 45 min
[10] = Patient 1, nitrite 90 mg inhaled, 60 min
[11] = Patient 2, nitrite 45 mg inhaled, 15 min
[12] = Patient 2, nitrite 45 mg inhaled, 30 min
[13] = Patient 2, nitrite 45 mg inhaled, 45 min
[14] = Patient 2, nitrite 45 mg inhaled, 60 min
[15] = Patient 2, nitrite 90 mg inhaled, 15 min
[16] = Patient 2, nitrite 90 mg inhaled, 30 min
[17] = Patient 2, nitrite 90 mg inhaled, 45 min
[18] = Patient 2, nitrite 90 mg inhaled, 60 min
[19] = Patient 3, nitrite 45 mg inhaled, 15 min
[20] = Patient 3, nitrite 45 mg inhaled, 30 min
[21] = Patient 3, nitrite 45 mg inhaled, 45 min
[22] = Patient 3, nitrite 45 mg inhaled, 60 min
[23] = Patient 3, nitrite 90 mg inhaled, 15 min
[24] = Patient 3, nitrite 90 mg inhaled, 30 min
[25] = Patient 3, nitrite 90 mg inhaled, 45 min
[26] = Patient 3, nitrite 90 mg inhaled, 60 min
[27] = Patient 4, nitrite 45 mg inhaled, 15 min
[28] = Patient 4, nitrite 45 mg inhaled, 30 min
[29] = Patient 4, nitrite 45 mg inhaled, 45 min
[30] = Patient 4, nitrite 45 mg inhaled, 60 min
[31] = Patient 4, nitrite 90 mg inhaled, 15 min
[32] = Patient 4, nitrite 90 mg inhaled, 30 min
[33] = Patient 4, nitrite 90 mg inhaled, 45 min
[34] = Patient 4, nitrite 90 mg inhaled, 60 min
[35] = Patient 5, nitrite 45 mg inhaled, 15 min
[36] = Patient 5, nitrite 45 mg inhaled, 30 min
[37] = Patient 5, nitrite 45 mg inhaled, 45 min
[38] = Patient 5, nitrite 45 mg inhaled, 60 min
[39] = Patient 5, nitrite 90 mg inhaled, 15 min
[40] = Patient 5, nitrite 90 mg inhaled, 30 min
[41] = Patient 5, nitrite 90 mg inhaled, 45 min
[42] = Patient 5, nitrite 90 mg inhaled, 60 min

For O=NO [nitrite, sodium nitrite], the “Syst O2sat” value [1, 3] was 95, the metHgB [1, 3] was 1.1 and the “Syst O2sat” value [1, 4] was 100. For the same compound, the metHgB [1, 4] was 1.1, the “Syst O2sat” value [1, 5] was 92 and the metHgB [1, 5] was 1.3. For the same compound, the “Syst O2sat” value [1, 6] was 92, the metHgB [1, 6] was 1.5 and the “Syst O2sat” value [1, 7] was 95. The metHgB [1, 7] was 1.4, the “Syst O2sat” value [1, 8] was 94 and the metHgB [1, 8] was 1.3. For the same compound, the “Syst O2sat” value [1, 9] was 94, the metHgB [1, 9] was 1.2 and the “Syst O2sat” value [1, 10] was 94. The metHgB [1, 10] was 1.4, the “Syst O2sat” value [1, 11] was 98 and the metHgB [1, 11] was 1. The “Syst O2sat” value [1, 12] was 99, the metHgB [1, 12] was 1 and the “Syst O2sat” value [1, 13] was 99. For the same compound, the metHgB [1, 13] was 1, the “Syst O2sat” value [1, 14] was 99 and the metHgB [1, 14] was 1. For the same compound, the “Syst O2sat” value [1, 15] was 96, the metHgB [1, 15] was 1.4 and the “Syst O2sat” value [1, 16] was 98. For the same compound, the metHgB [1, 16] was 1.7, the “Syst O2sat” value [1, 17] was 98 and the metHgB [1, 17] was 1.7. The “Syst O2sat” value [1, 18] was 100, the metHgB [1, 18] was 1.6 and the “Syst O2sat” value [1, 19] was 92. The metHgB [1, 19] was 1.1, the “Syst O2sat” value [1, 20] was 94 and the metHgB [1, 20] was 1.3. For the same compound, the “Syst O2sat” value [1, 21] was 93, the metHgB [1, 21] was 1.5 and the “Syst O2sat” value [1, 22] was 94. The metHgB [1, 22] was 1.5, the “Syst O2sat” value [1, 23] was 97 and the metHgB [1, 23] was 1.7. For the same compound, the “Syst O2sat” value [1, 24] was 95, the metHgB [1, 24] was 1.7 and the “Syst O2sat” value [1, 25] was 95. For the same compound, the metHgB [1, 25] was 1.6, the “Syst O2sat” value [1, 26] was 95 and the metHgB [1, 26] was 1.5. The “Syst O2sat” value [1, 27] was 98, the metHgB [1, 27] was 1.3 and the “Syst O2sat” value [1, 28] was 98. The metHgB [1, 28] was 1.1, the “Syst O2sat” value [1, 29] was 99 and the metHgB [1, 29] was 1. The “Syst O2sat” value [1, 30] was 97, the metHgB [1, 30] was 0.8 and the “Syst O2sat” value [1, 31] was 97. The metHgB [1, 31] was 1.7, the “Syst O2sat” value [1, 32] was 97 and the metHgB [1, 32] was 2. The “Syst O2sat” value [1, 33] was 96, the metHgB [1, 33] was 1.2 and the “Syst O2sat” value [1, 34] was 96. The metHgB [1, 34] was 1.2, the “Syst O2sat” value [1, 35] was 94 and the metHgB [1, 35] was 1.1. The “Syst O2sat” value [1, 36] was 98, the metHgB [1, 36] was 0.8 and the “Syst O2sat” value [1, 37] was 97. The metHgB [1, 37] was 0.7, the “Syst O2sat” value [1, 38] was 94 and the metHgB [1, 38] was 0.8. For the same compound, the “Syst O2sat” value [1, 39] was 95, the metHgB [1, 39] was 0.9 and the “Syst O2sat” value [1, 40] was 97. The metHgB [1, 40] was 0.7, the “Syst O2sat” value [1, 41] was 98 and the metHgB [1, 41] was 0.7. For the same compound, the “Syst O2sat” value [1, 42] was 97, the metHgB [1, 42] was 0.5 and the “Syst O2sat” value ([1]; Patient 6, nitrite 45, 15 min) was 95. For the same compound, the metHgB ([1]; Patient 6, nitrite 45, 15 min) was 1.1, the “Syst O2sat” value ([1]; Patient 6, nitrite 45, 30 min) was 99 and the metHgB ([1]; Patient 6, nitrite 45, 30 min) was 1.3. For the same compound, the “Syst O2sat” value ([1]; Patient 6, nitrite 45, 45 min) was 96, the metHgB ([1]; Patient 6, nitrite 45, 45 min) was 1.3 and the “Syst O2sat” value ([1]; Patient 6, nitrite 45, 60 min) was 96. The metHgB ([1]; Patient 6, nitrite 45, 60 min) was 1.2, the “Syst O2sat” value ([1]; Patient 6, nitrite 90, 15 min) was 95 and the metHgB ([1]; Patient 6, nitrite 90, 15 min) was 1.9. For the same compound, the “Syst O2sat” value ([1]; Patient 6, nitrite 90, 30 min) was 95, the metHgB ([1]; Patient 6, nitrite 90, 30 min) was 1.9 and the “Syst O2sat” value ([1]; Patient 6, nitrite 90, 45 min) was 96. The metHgB ([1]; Patient 6, nitrite 90, 45 min) was 1.7, the “Syst O2sat” value ([1]; Patient 6, nitrite 90, 60 min) was 95 and the metHgB ([1]; Patient 6, nitrite 90, 60 min) was 1.7. For the same compound, the methemoglobin ([1]; at the doses tested (45 mg and 90 mg inhaled)) was “does not significantly affect” and the “arterial and pulmonary vasodilation” value [2] was “causes arterial and pulmonary vasodilation in hypoxic but not normoxic subjects”.
